One data set concerns 3MeX2P6. The data set can be described thus: Effector specificity of 3MeX2P6 in vitro and in vivo. The method, then: In vitro splicing assays. The assays were preformed by heating the RNA (500 nM) in H2O to 70° C. for 3 min then transferring to ice for 1 min. […] GTP (50 μM) was added to the remaining reaction (5 μl total volume) to start the splicing reaction. The reaction was incubated at 37° C. for 30 min and then terminated with stop dye (5 μl). The reactions were heated to 70° C. for 3 min and 5 μl was analyzed on an 8% denaturing polyacrylamide gel. The gel was dried, exposed to a phosphor screen and analyzed using a Molecular Dynamics Phosphorimager (Sunnyvale, Calif.). In vivo growth curves.

A further data set concerns Rev-dependent ligase. Type of data set: biochemical. The method, then:
Ligation assays. Ligation assays were performed as described hereinabove.

The subject of a further data set is C600ThyA::Kan^R cells. The procedure:
In vivo growth curves. Cells grown overnight in LB were diluted 1:100 in MM containing either theophylline, caffeine, 3-methylxanthine or no effector, and analyzed on a Microbiology Workstation Bioscreen C (Labsystems, Inc., Franklin, Mass.).

The subject of data set [1] is Cyt 18-dependent population. As to the kind of experiment: Specificity of activation of Cyt18-dependent ribozymes by proteins. Type of data set: biochemical. The method, then:
(§1) Protein inactivation. Standard ligation assays were performed as described above, but in the presence of protein samples that had been pre-treated as follows. Cyt18 protein was denatured by heating for 10 min at 70° C. or by the addition of 6% SDS (0.7% SDS in ligation reaction). Lysozyme was heated 10 min at 100° C. or incubated 10 min at room temperature in the presence of 2 mM DTT (0.3 mM DTT final reaction) without inactivating the protein. The protein was successfully inactivated by heating for […] at 70° C. in the presence of 2 mM DTT. Ligation reactions were performed with 1.3 μM protein in 15 μl reactions incubated 5 min at 25° C.

The target in data set [2] is T1, lysozyme (Gallus gallus, UniProt P00698). As to the kind of experiment: Filter binding assay with lysozyme. Details: species or system hen. The note with it: read-out: Kd of anti-lysozyme aptamer. The procedure:
Binding assays. Binding assays were performed in triplicate by combining I pmol of [^32P]-body-labeled RNA, 20 pmol 18.90a, and varying amounts of target protein (1 pmol to 5 nmol) in 50 μl of ligation buffer. After incubation at room temperature for 30 min, the mixture was drawn under vacuum through a series of nitrocellulose and nylon filters and washed with 150 μl of ligation buffer. The ratio of protein-bound RNA versus free RNA was determined by analyzing the counts retained on the nitrocellulose filter versus the counts on the nylon filter.

For data set [3], the target named is T1, lysozyme. As to the kind of experiment: Competition assay, competitor RNA against lysozyme activation of lys11-2. The note with it: 3 μM competitor RNA, 2 μM lysozyme. Type of data set: biochemical, hen. The procedure:
Competition assays. Ligation assays were performed as described above, using 10 pmol of [^32P]-body-labeled ribozyme (cyt7-2 or lys11-2; […]) and 20 pmol effector oligonucleotide (2 μM). The denatured and annealed RNA mixture was combined with ligation buffer, 20 pmol protein (Cyt18, lysozyme, or water in the case of (−) protein samples; 2 μM), and 30 pmol of denatured and annealed competitor RNA (3 μM). Competitor RNAs are as follows:
Where N=(A, G, C, U), and tRNA (from Yeast; Gibco BRL, Gaithersburg, Md.). […] Cyt18 reactions were incubated 5 min at 25° C. and lysozyme reactions were incubated 10 min. Reactions were terminated by the addition of 45 μl of SDS/urea stop mix (75 mM EDTA, 80% formamide, saturated urea, saturated SDS, 0.05% bromophenol blue, 0.05% xylene cyanol) and analyzed on 8% polyacrylamide gels containing 0.1% SDS as above.

Data set [4] deals with lysozyme-dependent clones. As to the kind of experiment: Specificity of activation of lysozyme-dependent ribozymes by proteins. Type of data set: biochemical. The settings on record: lysozyme both reduced and denatured. The method, then:
as §1

As for `Cn1c(=O)c2[nH]c(=O)[nH]c2n(C)c1=O` [1,3-dimethyl urilic acid], the “responsiveness of 3MeX2P6 variants to effector” value (“responsiveness” for short) in the data set on 3MeX2P6 is reported as “nor were they responsive”.

Regarding `Cn1c(=O)[nH]c2nc[nH]c2c1=O` [1-methylxanthine], the “responsiveness” value in the data set on 3MeX2P6 is “nor were they responsive”.

With `Cn1c(=O)[nH]c(=O)c2[nH]cnc21` [3-methylxanthine], the “responsiveness” value with 3MeX2P6 is given as “responsive”.

Turning to `Cn1cnc2[nH]c(=O)[nH]c(=O)c21` [7-methylxanthine], the “responsiveness” value in the data set with 3MeX2P6 is reported as “nor were they responsive”.

Regarding `N=C(N)NCCC[C@H](N)C(=O)O` [arginine], the “activation of the Rev-dependent ligase” value with Rev-dependent ligase is on record as “Activation was observed only with HIV Tat peptide”.

Regarding `Cn1c(=O)c2c(ncn2C)n(C)c1=O` [caffeine], the “responsiveness” value with 3MeX2P6 is “nor were they responsive”. Also, the “activation of growth of cells with td gene divided by Th2P6 by effector” value in the data set on C600ThyA::Kan^R cells is recorded as “not activated”.

On to `O=c1[nH]cnc2nc[nH]c12` [hypoxanthine], for which, in the data set on 3MeX2P6, the “responsiveness” value is given as “nor were they responsive”.

`Cn1cnc2c1c(=O)[nH]c(=O)n2C` [theobromine]: the “responsiveness” value in the data set with 3MeX2P6 was “nor were they responsive”.

On to `Cn1c(=O)c2[nH]cnc2n(C)c1=O` [theophylline], for which, in the data set with 3MeX2P6, the “responsiveness” value is on record as “no longer responsive”. Also, in the data set on C600ThyA::Kan^R cells (E. coli), the “concentration causing a decrease in growth of cells containing the parental td intron (toxic to cells)” value is “greater than 0.5 mM” and the “concentration that progressively decreases growth of cells with theophylline-dependent introns” value was “above 2 mM”.

Turning to `O=c1[nH]c(=O)c2[nH]cnc2[nH]1` [xanthine], in the data set on 3MeX2P6, the “responsiveness” value is reported as “nor were they responsive”.

For the compound “E. coli tryptophanyl tRNA synthetase: non-cognate protein”, the “activation of Cyt18-dependent ribozyme by non-cognate protein” value (“activation … by non-cognate protein” for short) in data set [1] is on record as “No activation”.

As for MS2 coat protein: non-cognate protein, the “activation … by non-cognate protein” value in data set [1] is “No activation”.

For “cl: high affinity anti-lysozyme aptamer, SEQ ID NO:13 (GCGACTGGACATCACGAG; chemistry not given here)”, the Kd (commonly the equilibrium constant for the complex coming apart) with lysozyme [2] came out at 31 nM. The “reduction of lysozyme activation of lys11-2 by competitor RNA” value in the data set with lysozyme [3] was “reduced activation to background levels”.

As to lysozyme: hen egg white lysozyme, the “activation of catalysis by inactivated lysozyme” value in data set [4] was “unable to activate”. In data set [1], the “activation … by non-cognate protein” value is given as “No activation”.

For the origin of these results see patent publication US20040126882A1, “Regulatable, catalytically active nucleic acids” (priority 2000, published 2004).
